Drawing on patent publication US20260022142A1, “MACROCYCLIC IMMUNOMODULATORS” (Bristol-Myers Squibb Company, priority 2022, published 2026), this text covers IC50 for nine compounds.

For orientation: IC50 means the midpoint of a concentration-inhibition curve.

Bridge positions count the residues as written; N and C are the ends. Square brackets hold non-standard residues; d marks the D form. Peptide text beside a SMILES is read from it. * marks the point of attachment. Phe(4-CONH2) = NC(=O)c1ccc(C[C@H](N)C(=O)O)cc1; Bip = N[C@@H](Cc1ccc(-c2ccccc2)cc1)C(=O)O; Phe(3-Me) = Cc1cccc(C[C@H](N)C(=O)O)c1; His(τ-Me) = Cn1cnc(C[C@H](N)C(=O)O)c1; His(π-Me) = Cn1cncc1C[C@H](N)C(=O)O; Val(3-OH) = CC(C)(O)[C@H](N)C(=O)O; Val(3-F) = CC(C)(F)[C@H](N)C(=O)O; 3Pal = N[C@@H](Cc1cccnc1)C(=O)O; 4Pal = N[C@@H](Cc1ccncc1)C(=O)O; Cha = N[C@@H](CC1CCCCC1)C(=O)O; Cit = NC(=O)NCCC[C@H](N)C(=O)O; Carboxymethyl = O=C(O)C*; Orn = NCCC[C@H](N)C(=O)O; Aun = NCCCCCCCCCCC(=O)O; Dab = NCC[C@H](N)C(=O)O; Dap = NC[C@H](N)C(=O)O; Piv = CC(C)(C)C(=O)*

For the experiment, the target named is T1, PD-1/PD-L1 interaction (PE-labeled human PD-L1-Ig binding to Jurkat cell line over-expressing human PD-1) (Homo sapiens, UniProt Q15116).
T1 construct: expressed in transfected cells; host or cells: Jurkat
T1 sequence (Q15116 25-288): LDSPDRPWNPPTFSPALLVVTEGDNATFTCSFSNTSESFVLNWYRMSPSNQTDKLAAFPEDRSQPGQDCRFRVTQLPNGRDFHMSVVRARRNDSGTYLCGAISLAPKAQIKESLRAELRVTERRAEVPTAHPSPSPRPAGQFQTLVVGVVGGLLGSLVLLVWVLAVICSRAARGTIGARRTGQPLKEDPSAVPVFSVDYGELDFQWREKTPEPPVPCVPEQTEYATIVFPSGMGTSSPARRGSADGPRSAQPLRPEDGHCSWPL
The experiment can be described thus: Jurkat-PD-1 Cell Binding High-Content Screening Assay (CBA). Type of experiment: cell-based. Conditions: Jurkat cell line over-expressing human PD-1; PE-labeled PD-L1-Ig 20 nM final; read-out: Jurkat hPD1-PDL1 IC50. In a few lines: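 Binding of fluorescent PD-L1-Ig (20 nM final) to Jurkat-PD-1 cells was measured by automated imaging after 1 h, following a 2 h compound pre-treatment at 37° C.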
As for `Cc1cccc(C[C@@H]2NC(=O)[C@H](CC(=O)O)NC(=O)[C@H](Cc3ccc(OCC(=O)O)cc3)NC(=O)[C@H](Cc3cncn3C)NC(=O)CSC[C@@H](C(=O)N[C@@H](CCN)C(=O)NCCCCCCCCCCC(=O)O)NC(=O)[C@H]([C@@H](C)O)NC(=O)[C@H](C(C)C)NC(=O)[C@H](CC3CCCCC3)NC(=O)[C@H](CCN)NC(=O)[C@@H](CC(C)C)NC(=O)[C@H](CCCN)NC(=O)[C@H](Cc3ccc(OCC(=O)O)cc3)NC(=O)[C@H](Cc3ccc(-c4ccccc4)cc3)NC(=O)[C@H](Cc3ccc(OCC(=O)O)cc3)NC2=O)c1` [Compound 2148] ({CH2CO}-[His(π-Me)]Y(Carboxymethyl)D[Phe(3-Me)]Y(Carboxymethyl)[Bip]Y(Carboxymethyl)[Orn][dL][Dab][Cha]VTC[Dab][Aun]-OH; thioether N-14), the IC50 worked out at 25.4 nM. In the case of `Cc1cccc(C[C@@H]2NC(=O)[C@H](CC(=O)O)NC(=O)[C@H](Cc3ccc(OCC(=O)O)cc3)NC(=O)[C@H](Cc3cccnc3)NC(=O)CSC[C@@H](C(=O)N[C@@H](CCN)C(=O)NCCCCCCCCCCC(=O)O)NC(=O)[C@H](CO)NC(=O)[C@H](C(C)C)NC(=O)[C@H](CC3CCCCC3)NC(=O)[C@H](CCN)NC(=O)[C@@H](CC(C)C)NC(=O)[C@H](CCCN)NC(=O)[C@H](Cc3ccc(OCC(=O)O)cc3)NC(=O)[C@H](Cc3ccc(-c4ccccc4)cc3)NC(=O)[C@H](C(C)(C)O)NC2=O)c1` [Compound 2149] ({CH2CO}-[3Pal]Y(Carboxymethyl)D[Phe(3-Me)][Val(3-OH)][Bip]Y(Carboxymethyl)[Orn][dL][Dab][Cha]VSC[Dab][Aun]-OH; thioether N-14), the IC50 is 55.1 nM. For the compound `Cc1cccc(C[C@@H]2NC(=O)[C@H](CC(=O)O)NC(=O)[C@H](Cc3ccc(OCC(=O)O)cc3)NC(=O)[C@H](Cc3cn(C)cn3)NC(=O)CSC[C@@H](C(=O)N[C@@H](CCN)C(=O)NCCCCCCCCCCC(=O)O)NC(=O)[C@H](CO)NC(=O)[C@H](C(C)C)NC(=O)[C@H](CC3CCCCC3)NC(=O)[C@H](CCN)NC(=O)[C@@H](CC(C)C)NC(=O)[C@H](CCCN)NC(=O)[C@H](Cc3ccc(OCC(=O)O)cc3)NC(=O)[C@H](Cc3ccc(-c4ccccc4)cc3)NC(=O)[C@H](C(C)(C)O)NC2=O)c1` [Compound 2150] ({CH2CO}-[His(τ-Me)]Y(Carboxymethyl)D[Phe(3-Me)][Val(3-OH)][Bip]Y(Carboxymethyl)[Orn][dL][Dab][Cha]VSC[Dab][Aun]-OH; thioether N-14), the IC50 turned out to be 565 nM.

With `Cc1cccc(C[C@@H]2NC(=O)[C@H](CC(=O)O)NC(=O)[C@H](Cc3ccc(OCC(=O)O)cc3)NC(=O)[C@H](Cc3ccncc3)NC(=O)CSC[C@@H](C(=O)N[C@@H](CCN)C(=O)NCCCCCCCCCCC(=O)O)NC(=O)[C@H]([C@@H](C)O)NC(=O)[C@H](C(C)C)NC(=O)[C@H](CC3CCCCC3)NC(=O)[C@H](CCN)NC(=O)[C@@H](CC(C)C)NC(=O)[C@H](CCCN)NC(=O)[C@H](Cc3ccc(OCC(=O)O)cc3)NC(=O)[C@H](Cc3ccc(-c4ccccc4)cc3)NC(=O)[C@H](C(C)(C)O)NC2=O)c1` [Compound 2151] ({CH2CO}-[4Pal]Y(Carboxymethyl)D[Phe(3-Me)][Val(3-OH)][Bip]Y(Carboxymethyl)[Orn][dL][Dab][Cha]VTC[Dab][Aun]-OH; thioether N-14), the IC50 came to 40.6 nM. Next, `Cc1cccc(C[C@@H]2NC(=O)[C@H](CC(=O)O)NC(=O)[C@H](Cc3ccc(OCC(=O)O)cc3)NC(=O)[C@H](Cc3cncn3C)NC(=O)CSC[C@@H](C(=O)N[C@@H](CCN)C(=O)NCCCCCCCCCCC(=O)O)NC(=O)[C@H]([C@@H](C)O)NC(=O)[C@H](C(C)C)NC(=O)[C@H](CC3CCCCC3)NC(=O)[C@H](CCN)NC(=O)[C@@H](CC(C)C)NC(=O)[C@H](CCCN)NC(=O)[C@H](Cc3ccc(OCC(=O)O)cc3)NC(=O)[C@H](Cc3ccc(-c4ccccc4)cc3)NC(=O)[C@H](C(C)(C)O)NC2=O)c1` [Compound 2152] ({CH2CO}-[His(π-Me)]Y(Carboxymethyl)D[Phe(3-Me)][Val(3-OH)][Bip]Y(Carboxymethyl)[Orn][dL][Dab][Cha]VTC[Dab][Aun]-OH; thioether N-14): 73.6 nM.

Regarding `Cc1cccc(C[C@@H]2NC(=O)[C@H](CC(=O)O)NC(=O)[C@H](Cc3ccc(OCC(=O)O)cc3)NC(=O)[C@H](CN)NC(=O)CSC[C@@H](C(=O)N[C@@H](CCN)C(=O)NCCCCCCCCCCC(=O)O)NC(=O)[C@H]([C@@H](C)O)NC(=O)[C@H](C(C)(C)O)NC(=O)[C@H](CC3CCCCC3)NC(=O)[C@H](CCN)NC(=O)[C@@H](CC(C)C)NC(=O)[C@H](CCCN)NC(=O)[C@H](CCCNC(N)=O)NC(=O)[C@H](Cc3ccc(-c4ccccc4)cc3)NC(=O)[C@H](C(C)C)NC2=O)c1` [Compound 2153] ({CH2CO}-[Dap]Y(Carboxymethyl)D[Phe(3-Me)]V[Bip][Cit][Orn][dL][Dab][Cha][Val(3-OH)]TC[Dab][Aun]-OH; thioether N-14), the IC50 came out at 23.4 nM.

Consider `Cc1cccc(C[C@@H]2NC(=O)[C@H](CC(=O)O)NC(=O)[C@H](Cc3ccc(OCC(=O)O)cc3)NC(=O)[C@H](Cc3ccc(C(N)=O)cc3)NC(=O)CSC[C@@H](C(=O)N[C@@H](CCN)C(=O)NCCCCCCCCCCC(=O)O)NC(=O)[C@H](CCC(N)=O)NC(=O)[C@H](C(C)(C)O)NC(=O)[C@H](CC3CCCCC3)NC(=O)[C@H](CCN)NC(=O)[C@@H](CC(C)C)NC(=O)[C@H](CCCN)NC(=O)[C@H](Cc3ccc(OCC(=O)O)cc3)NC(=O)[C@H](Cc3ccc(-c4ccccc4)cc3)NC(=O)[C@H](Cc3ccc(OCC(=O)O)cc3)NC2=O)c1` [Compound 2154] ({CH2CO}-[Phe(4-CONH2)]Y(Carboxymethyl)D[Phe(3-Me)]Y(Carboxymethyl)[Bip]Y(Carboxymethyl)[Orn][dL][Dab][Cha][Val(3-OH)]QC[Dab][Aun]-OH; thioether N-14), for which the IC50 is 9.2 nM.

Turning to `Cc1cccc(C[C@@H]2NC(=O)[C@H](CC(=O)O)NC(=O)[C@H](Cc3ccc(OCC(=O)O)cc3)NC(=O)[C@H](Cc3cn(C)cn3)NC(=O)CSC[C@@H](C(=O)N[C@@H](CCN)C(=O)NCCCCCCCCCCC(=O)O)NC(=O)[C@H](CCC(N)=O)NC(=O)[C@H](C(C)(C)O)NC(=O)[C@H](CC3CCCCC3)NC(=O)[C@H](CCN)NC(=O)[C@@H](CC(C)C)NC(=O)[C@H](CCCN)NC(=O)[C@H](Cc3ccc(OCC(=O)O)cc3)NC(=O)[C@H](Cc3ccc(-c4ccccc4)cc3)NC(=O)[C@H](Cc3ccc(OCC(=O)O)cc3)NC2=O)c1` [Compound 2155] ({CH2CO}-[His(τ-Me)]Y(Carboxymethyl)D[Phe(3-Me)]Y(Carboxymethyl)[Bip]Y(Carboxymethyl)[Orn][dL][Dab][Cha][Val(3-OH)]QC[Dab][Aun]-OH; thioether N-14), the IC50 is 19.4 nM. Turning to `Cc1cccc(C[C@@H]2NC(=O)[C@H](CC(=O)O)NC(=O)[C@H](Cc3ccc(OCC(=O)O)cc3)NC(=O)[C@H](CCNC(=O)C(C)(C)C)NC(=O)CSC[C@@H](C(=O)N[C@@H](CCN)C(=O)NCCCCCCCCCCC(=O)O)NC(=O)[C@H](CCC(N)=O)NC(=O)[C@H](C(C)(C)F)NC(=O)[C@H](CC3CCCCC3)NC(=O)[C@H](CCN)NC(=O)[C@@H](CC(C)C)NC(=O)[C@H](CCCN)NC(=O)[C@H](Cc3ccc(OCC(=O)O)cc3)NC(=O)[C@H](Cc3ccc(-c4ccccc4)cc3)NC(=O)[C@H](Cc3ccc(OCC(=O)O)cc3)NC2=O)c1` [Compound 2156] ({CH2CO}-[Dab](Piv)Y(Carboxymethyl)D[Phe(3-Me)]Y(Carboxymethyl)[Bip]Y(Carboxymethyl)[Orn][dL][Dab][Cha][Val(3-F)]QC[Dab][Aun]-OH; thioether N-14), the IC50 stood at 9.8 nM.
